# Test results published in article PMC5849182, “Kallikrein-related peptidase 7 is a potential target for the treatment of pancreatic cancer” (Oncotarget, 2018).
# Tests used:
# [1] = tested on: KLK7; test: KLK7 expression in lentivirus-infected PANC-1 cells (real-time PCR and western blotting); format: cell-based, human; conditions: PANC-1 cells stably infected, compared to NC group
# Source text: A scrambled shRNA sequence was used as the negative control (LV-NC-shRNA, 5′-[…]-3′). The shRNA sequences were synthesized and cloned into recombinant shRNA expression vectors (pGLV3-H1-GFP-Puro). The resulted plasmids were verified by DNA sequencing.
# PANC-1 and HepG2 cell lines were obtained from the Chinese Type Culture Collection Center (Wuhan, China). PANC-1 cells were maintained in dulbecco’s modified Eagle medium supplemented with 10% fetal bovine serum, 100 units/ml penicillin G sodium, and 100 μg/ml streptomycin sulphate. HepG2 cells were maintained in RPMI 1640 medium supplemented with 10% fetal bovine serum, 100 units/ml penicillin G sodium, and 100 μg/ml streptomycin sulphate. PANC-1 and HepG2 cells pro-treated by 5 μg/ml polybrene were infected with the lentivirus and stably infected cells were selected in cell culture medium containing 4 μg/ml puromycin (Sigma-Aldrich). […]
# Western blotting assay was performed with cell lysates collected from stably transfected cells. Total protein concentrations were measured with the bicinchoninic assay (BCA). The sample proteins (20μg for each lane) were analyzed first in 12% SDS-PAGE and then transferred onto polyvinylidine difuorides membranes. […] The chemiluminescent data were collected and grayscale values were evaluated with Image J.
# [2] = tested on: PANC-1 cells; test: RTCA matrigel invasion assay; format: cell-based; conditions: KLK7 silenced PANC-1 cells, compared to BC and NC groups
# Experimental: (§1) Cell matrigel invasion assay was similar to the cell migration assay, except that the microporous membrane between the upper and lower chambers was coated by a thin layer of matrigel (BD Biosciences). After 36 h, cells on the bottom side were fixed in cold methanol, stained with 0.4% crystal violet, and photographed (5 random fields for each sample).
# (§2) The tested compound was added into the cell culture medium 3 h after PANC-1 cells were seeded. The cell prolifiation, migration and matrigel invasion was then assayed on RTCA.
# [3] = tested on: HepG2 cells; test: RTCA proliferation, migration and invasion of KLK7 silenced HepG2 cells; format: cell-based
# Experimental: (§3) Cell migration assay was performed on RTCA xCELLigence DP (ACEA Biosciences). […] Migration was measured as the relative cell index change measured by the microelectronic sensors integrated into the bottom side of the membrane. Measurements were recorded every 15 min for 36 h.
# as §1
# [4] = tested on: PANC-1 cells; test: RTCA cell migration assay; format: cell-based; conditions: KLK7 silenced PANC-1 cells, compared to BC and NC groups
# Experimental: as §3, §2
substance,measurement,setting,value
"5′-GCACUGAGUUAAUUAACUGUGUUUCAAGAGAACACAGUUAAUUAACUCAGUGCUU-3′ (expressed or natural sequence) [LV-hKLK7-shRNA-4, PANC-1 cells infected with it are named KD4]",Decrease of KLK7 expression,[1],around 90%
same,Invasion capacity,[2],almost fully inhibited
same,Effect on invasion of HepG2 cells,[3],did not affect
same,Effect on migration of HepG2 cells,[3],did not affect
same,Decrease of migration rate,[4],about 85%
